Positions of bridges follow the written chain, without caps; N, C: chain ends. Residues, ends and D or L forms follow the SMILES beside them.
What was measured:
IgG4 = IgG4 (Homo sapiens, UniProt P01861); assay: Column capture of human IgG4 from goat IgG in buffer; type: binding; set-up: all human subtypes derived from myeloma patients; purchased Calbiochem 400126; host or cells: myeloma patients; settings: SEC-HPLC; load 99.5% monomer
Experimental: 0.250 mg of hIgG4 (99.5% monomer) was added to 1.0 mg of goat IgG in a total volume of 1.0 ml of PBST, pH 7.2. Thus, 1.0 ml was loaded onto a 350 ul mini-column as described above. The column was washed to baseline with PBST, pH 7.2 and the flowthrough fraction collected. Bound IgG was eluted with 0.1M sodium bicarbonate buffer, pH 9.0 and the column cleaned with 0.1M CAPS, pH 11.5. The eluted and clean fractions were quickly neutralized to pH˜7.2 and assayed for mass recovery by SEC-HPLC. […] The column load, flowthrough, elution and cleaning fractions were further analyzed by electrophoresis (SDS-PAGE), Coomassie stain.

polyclonal human IgG = assay: DX253 column re-use: total dynamic binding capacity
Experimental: (§1) DX253 peptide was immobilized onto NHS-activated 4 Fast Flow to a ligand density of 2.9 μmole/ml as determined by quantitative amino acid analysis. This affinity resin was packed into a 4.6 mm×6 cm (internal diam.×length, 1.0 ml bed volume) PEEK column (Isolation Technologies, Inc., 5050IP-08046-006-20).
To establish total dynamic binding capacity, polyclonal human IgG (ICN, 55908) was prepared in PBS, pH 7.2 containing 0.05% NaN3 at 2.5 mg/ml. A total of 75 mg (30 ml) was loaded at 0.21 ml/minute (75 cm/hr) to capacity (until the absorbance at 280 nm of the load was equivalent to that of the column flowthrough). Fractions were collected across the entire run. Unbound IgG was washed to baseline at 0.42 ml/minute (150 cm/hour) with PBS, pH 7.2. Bound IgG was eluted with 0.1M citrate, pH 3.0 buffer and immediately neutralized with minimal addition of 1M HEPES, pH 9.0 buffer to ˜pH 7.0. […] All post-load wash, elution and cleaning steps were performed at a flow rate of 0.42 ml/minute (150 cm/hour). Total mg IgG bound was determined by measuring the absorbance at 280 nm of the elution fraction calculated using an extinction coefficicent of 1.4. Initial (T=0, prior to initiating column cycling) total dynamic capacity measured 19.8 mg human IgG per ml affinity resin. […] Mass balance recovery for these 5 total capacity determinations averaged 98%. […] The column retained approximately 90% relative performance with respect to total dynamic capacity after 95 cycles.

human IgG = assay: DX253 column cycling with IgG spiked cell culture media
Experimental: as §1
Human IgG was spiked into fresh cell culture media (DMEM) containing 10% fetal bovine serum (ultra low) to 0.5 mg/ml. 2 ml (1.0 mg IgG) was loaded onto the column which was pre-equilibrated with PBS, pH 7.2. Loading was performed at 0.21 ml/minute (75 cm/hour) and all subsequent steps (wash, elution and cleaning) were performed at 0.42 ml/minute (150 cm/hour). Unbound sample was washed to baseline with PBS, pH 7.2, followed by elution with 0.1M citrate, pH 3.0, wash with PBS, pH 7.2, cleaning with 3M guanidine-HCl, 20 mM phosphate, pH 7.2 and re-equilibration back into PBS, pH 7.2. A total of 19 series of 5 cycles each (95 cycles total) were run. […] This procedure was used for cycles 1-25, 27-65, 67-85, and 87-95.

Chain of IgG4 (P01861 1-327 isoform P01861-1): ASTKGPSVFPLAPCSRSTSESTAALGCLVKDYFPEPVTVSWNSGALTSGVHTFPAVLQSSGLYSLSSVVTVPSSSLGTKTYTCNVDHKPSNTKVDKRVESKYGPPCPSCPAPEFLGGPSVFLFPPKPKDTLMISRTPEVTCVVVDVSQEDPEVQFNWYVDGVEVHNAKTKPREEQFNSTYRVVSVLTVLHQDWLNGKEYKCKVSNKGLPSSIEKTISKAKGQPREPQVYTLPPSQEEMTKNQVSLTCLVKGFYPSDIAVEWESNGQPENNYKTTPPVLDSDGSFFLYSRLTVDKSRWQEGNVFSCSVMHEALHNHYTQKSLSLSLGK

## CC[C@H](C)[C@@H]1NC(=O)[C@H](CC(C)C)NC(=O)[C@H](CCC(=O)O)NC(=O)CNC(=O)[C@H](Cc2c[nH]c3ccccc23)NC(=O)[C@H]([C@@H](C)O)NC(=O)[C@H]([C@@H](C)O)NC(=O)[C@H](Cc2ccc(O)cc2)NC(=O)[C@H](C(C)C)NC(=O)[C@@H](NC(=O)[C@H](CCSC)NC(=O)[C@H](Cc2c[nH]cn2)NC(=O)[C@H](CC(=O)O)NC(=O)[C@H](CC(=O)O)NC(=O)CNC(C)=O)CSSC[C@@H](C(=O)N[C@@H](CC(=O)O)C(=O)N[C@@H](CC(N)=O)C(=O)N[C@@H](Cc2c[nH]cn2)C(=O)N[C@@H](CCC(=O)O)C(=O)N2CCC[C@H]2C(=O)NCC(=O)N2CCC[C@H]2C(=O)N[C@@H](CCC(=O)O)C(=O)NCC(=O)NCC(=O)NCC(=O)N[C@@H](CCCCN)C(N)=O)NC(=O)[C@H](Cc2c[nH]c3ccccc23)NC1=O [DX249] (Ac-GDDHMCVYTTWGELIWCDNHEPGPEGGGK-NH2; disulfide 6-17)
IgG4
  Monomer in the eluted fraction: 99.5%

## Ac-GDRRACSRDWSGALVWCAGHEPGPEGGGK-NH2 (not fully specified (bridges); printed as Ac-GDRRACSRDWSGALVWCAGHEPGPEGGGK-NH2; cysteine pairing not given here) [DX253]
Polyclonal human IgG; T=0, ligand density 2.9 μmole/ml
  Initial total dynamic capacity: 19.8 mg human IgG per ml affinity resin
Polyclonal human IgG; Total Capacity Cycle Run No. 0
  % Relative Performance (total capacity vs T=0, 19.8 mg/ml): 100%
Polyclonal human IgG; Total Capacity Cycle Run No. 26
  % Relative Performance (total capacity vs T=0, 19.8 mg/ml): 93.9%
Polyclonal human IgG; Total Capacity Cycle Run No. 66
  % Relative Performance (total capacity vs T=0, 19.8 mg/ml): 85.9%
Polyclonal human IgG; Total Capacity Cycle Run No. 86
  % Relative Performance (total capacity vs T=0, 19.8 mg/ml): 91.4%
Polyclonal human IgG; Total Capacity Cycle Run No. 96
  % Relative Performance (total capacity vs T=0, 19.8 mg/ml): 87.9%
Polyclonal human IgG; after 95 cycles
  Relative performance with respect to total dynamic capacity: approximately 90%
Human IgG; Cycling Run No. 1, cycling run 1
  % Relative Performance (elution peak area vs cycle 1): 100%
Human IgG; Cycling Run No. 10, cycling run 10
  % Relative Performance (elution peak area vs cycle 1): 97.6%
Human IgG; Cycling Run No. 20, cycling run 20
  % Relative Performance (elution peak area vs cycle 1): 97.9%
Human IgG; Cycling Run No. 30, cycling run 30
  % Relative Performance (elution peak area vs cycle 1): 102.3%
Human IgG; Cycling Run No. 40, cycling run 40
  % Relative Performance (elution peak area vs cycle 1): 103.1%
Human IgG; Cycling Run No. 51, cycling run 51
  % Relative Performance (elution peak area vs cycle 1): 102.0%
Human IgG; Cycling Run No. 60, cycling run 60
  % Relative Performance (elution peak area vs cycle 1): 103.1%
Human IgG; Cycling Run No. 70, cycling run 70
  % Relative Performance (elution peak area vs cycle 1): 102.6%
Human IgG; Cycling Run No. 81, cycling run 81
  % Relative Performance (elution peak area vs cycle 1): 102.1%
Human IgG; Cycling Run No. 90, cycling run 90
  % Relative Performance (elution peak area vs cycle 1): 101.8%

— patent US20030199671A1, “Binding molecules for Fc-region polypeptides” (priority 2001, published 2003)
